# Reference: patent US9370474B2, “High-clarity aqueous concentrates of 4-hexylresorcinol” (JOHNSON & JOHNSON CONSUMER INC., priority 2009, dated 2016)
# Key:
# [1] = Clarity of mixtures of resorcinol/phenol analogues with water; type: physicochemical; conditions: separately mixed with water at 50% and 75% concentrations
# Description: 4-Octylresorcinol and 3-methoxyphenol (from Sigma-Aldrich of St. Louis, Mo.) were separately mixed with water at 50% and 75% concentrations.
# [2] = cited from earlier work
Clarity / appearance of mixtures with water [1],Compound,Water solubility (prior art characterization) [2]
None of the mixtures were clear,COc1cccc(O)c1 [3-methoxyphenol],
None of the mixtures were clear,CCCCCCCCc1ccc(O)cc1O [4-Octylresorcinol],
,"CCCCCCc1ccc(O)cc1O [Example 4-HR, 4-Hexylresorcinol]",water-insoluble
